For one experiment, the target named is human MC4. To be noted: competition, mean ± SEM, cited from earlier work.
For a further experiment, the target named is T1, lamprey MCa receptor (Lampetra fluviatilis, UniProt A6XB56).
T1 sequence (A6XB56 1-341): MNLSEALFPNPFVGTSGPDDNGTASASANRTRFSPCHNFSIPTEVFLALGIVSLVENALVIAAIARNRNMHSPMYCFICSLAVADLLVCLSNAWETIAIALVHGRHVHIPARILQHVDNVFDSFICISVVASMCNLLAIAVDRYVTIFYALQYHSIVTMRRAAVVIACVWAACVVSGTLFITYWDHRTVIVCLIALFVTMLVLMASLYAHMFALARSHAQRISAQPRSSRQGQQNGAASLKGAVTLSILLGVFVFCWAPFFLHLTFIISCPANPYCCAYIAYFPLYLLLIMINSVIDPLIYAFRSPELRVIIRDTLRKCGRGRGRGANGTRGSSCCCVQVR
The experiment is described as follows: Radioligand binding assay (saturation and competition, [125I] NDP-MSH), lamprey MCa. More on the design: species or system river lamprey. As to conditions: for affinity for lamprey MCa compared to the human MC1 and MC3 receptors: p < 0.01 for α-MSH, γ-MSH, ACTH(1–39). The procedure:
HEK-293 (human embryonic kidney) cells with Epstein-Barr nuclear antigen (EBNA) grown to 50–70% confluence were transfected with 10 μg of the construct using FuGENE-6 Transfection Reagent (Roche, Sweden) according to the manufacturers' instruction. The cells were grown in Dulbeccos Modified Eagle Media and F-12 Nutrient Mixture (D-MEM/F-12) (1:1) with GlutaMAX I containing 10% foetal bovine serum, 100 u/ml penicillin, 100 μg/ml streptomycin, 2.5 ug/ml amphotericin B, and 250 μg/ml geneticin G-418 (Invitrogen); in humidified atmosphere of 95% air and 5% CO2 at 37°C. Semi-stable cell lines, expressing target receptor, were obtained by selecting for growth in the presence of 100 μg/ml hygromycin B (Invitrogen), first added 24 hours after transfection.
HEK-293 EBNA cells expressing MC receptors were harvested from plate and resuspended in binding buffer composed of 25 mM HEPES, 2.5 mM CaCl2, 1 mM MgCl2 and 0.2% bacitracin, pH adjusted to 7.4. To obtain the membranes, cells were mechanically homogenized with Ultra Turrax. Cell suspensions were centrifuged for 3 min at 190 g and membranes were collected from the supernatant by centrifugation for 15 min at 20000 g. The pellet was resuspended in binding buffer. The binding was performed in a final volume of 100 μl for 2 h at room temperature. Saturation experiments were carried out with serial dilutions of [^125I] […] Competition experiments were performed with constant 0.6 nM concentration of [^125I] […] The membranes were collected by filtration on Glass Fibre filters, Filtermat A (Perkin Elmer, USA), using a TOMTEC Mach III cell harvester (Orange, CT, USA). The filters were washed with 5 ml per well of 50 mM Tris HCl (pH 7.4) and dried at 50°C. MeltiLex A scintillator sheets (Perkin Elmer, USA) were melted on dried filters and radioactivity was counted with an automatic Microbeta counter 1450 (Perkin Elmer). Binding assays were performed in duplicate with at least three independent experiments. […] The results were analysed with Prism 3.0 software package (GraphPad, USA). Binding affinities were compared with one-way ANOVA Tukey's post-hoc tests.

The target of the next experiment is human MC1. To be noted: competition, mean ± SEM, cited from earlier work.
In the next experiment the target is human MC3. As to conditions: competition, mean ± SEM, cited from earlier work.
In the next experiment the target is human MC5. As to conditions: competition, mean ± SEM, cited from earlier work.
Setting [1] is: comparison with previously published human values.

Like-named read-outs stand apart in the source and are kept apart here. Bridge positions count the residues as written; N and C are the ends. Square brackets hold non-standard residues; d marks the D form. Peptide text beside a SMILES is read from it. d2Nal = N[C@H](Cc1ccc2ccccc2c1)C(=O)O; Nle = CCCC[C@H](N)C(=O)O

As a reminder, the Ki is the equilibrium dissociation constant of an inhibitor or competing ligand from its target. Turning to `CSCC[C@H](NC(=O)[C@H](CO)NC(=O)[C@H](Cc1ccc(O)cc1)NC(=O)[C@@H](N)CO)C(=O)N[C@@H](CCC(=O)O)C(=O)N[C@@H](Cc1c[nH]cn1)C(=O)N[C@@H](Cc1ccccc1)C(=O)N[C@@H](CCCNC(=N)N)C(=O)N[C@@H](Cc1c[nH]c2ccccc12)C(=O)NCC(=O)N[C@@H](CCCCN)C(=O)N1CCC[C@H]1C(=O)N[C@H](C(=O)NCC(=O)N[C@@H](CCCCN)C(=O)N[C@@H](CCCCN)C(=O)N[C@@H](CCCNC(=N)N)C(=O)O)C(C)C` [ACTH (1–17)], the inhibition constant Ki on human MC4 (ref [40]) was 419 ± 62 nM; at lamprey MCa receptor it was 51.1 ± 3.2 nM; on human MC1 (ref [40]), 0.23 ± 0.061 nM; on human MC3 (ref [40]), 14 ± 4.5 nM; at human MC5 (ref [40]) it was 4240 ± 1200 nM. Further, the “affinity for lamprey MCa compared to the human MC4 and MC5 receptors” value on lamprey MCa receptor (setting [1]) is on record as “clearly higher affinities”. On lamprey MCa receptor (setting [1]), the “affinity for lamprey MCa compared to the human MC1 and MC3 receptors” value is “clearly lower affinities”.
`CSCC[C@H](NC(=O)[C@H](CO)NC(=O)[C@H](Cc1ccc(O)cc1)NC(=O)[C@@H](N)CO)C(=O)N[C@@H](CCC(=O)O)C(=O)N[C@@H](Cc1cnc[nH]1)C(=O)N[C@@H](Cc1ccccc1)C(=O)N[C@@H](CCCNC(=N)N)C(=O)N[C@@H](Cc1c[nH]c2ccccc12)C(=O)NCC(=O)N[C@@H](CCCCN)C(=O)N1CCC[C@H]1C(=O)N[C@H](C(=O)NCC(=O)N[C@@H](CCCCN)C(=O)N[C@@H](CCCCN)C(=O)N[C@@H](CCCNC(=N)N)C(=O)N[C@@H](CCCNC(=N)N)C(=O)N1CCC[C@H]1C(=O)N[C@H](C(=O)N[C@@H](CCCCN)C(=O)N[C@H](C(=O)N[C@@H](Cc1ccc(O)cc1)C(=O)N1CCC[C@H]1C(=O)N[C@@H](CC(N)=O)C(=O)NCC(=O)N[C@@H](C)C(=O)N[C@@H](CCC(=O)O)C(=O)N[C@@H](CC(=O)O)C(=O)N[C@@H](CCC(=O)O)C(=O)N[C@@H](CO)C(=O)N[C@@H](C)C(=O)N[C@@H](CCC(=O)O)C(=O)N[C@@H](C)C(=O)N[C@@H](Cc1ccccc1)C(=O)N1CCC[C@H]1C(=O)N[C@@H](CC(C)C)C(=O)N[C@@H](CCC(=O)O)C(=O)N[C@@H](Cc1ccccc1)C(=O)O)C(C)C)C(C)C)C(C)C` [ACTH (1–39), adrenocorticotropic hormone] (H-SYSMEHFRWGKPVGKKRRPVKVYPNGAEDESAEAFPLEF-OH) came in with a Ki on lamprey MCa receptor of 291 ± 20 nM.
For the compound `CSCC[C@H](NC(=O)[C@H](CO)NC(=O)[C@H](Cc1ccc(O)cc1)NC(=O)[C@@H](N)CO)C(=O)N[C@@H](CCC(=O)O)C(=O)N[C@@H](Cc1c[nH]cn1)C(=O)N[C@@H](Cc1ccccc1)C(=O)N[C@@H](CCCNC(=N)N)C(=O)N[C@@H](Cc1c[nH]c2ccccc12)C(=O)NCC(=O)N[C@@H](CCCCN)C(=O)N1CCC[C@H]1C(=O)N[C@H](C(=O)NCC(=O)N[C@@H](CCCCN)C(=O)N[C@@H](CCCCN)C(=O)N[C@@H](CCCNC(=N)N)C(=O)N[C@@H](CCCNC(=N)N)C(=O)N1CCC[C@H]1C(=O)N[C@H](C(=O)N[C@@H](CCCCN)C(=O)N[C@H](C(=O)N[C@@H](Cc1ccc(O)cc1)C(=O)N1CCC[C@H]1C(=O)N[C@@H](CC(N)=O)C(=O)NCC(=O)N[C@@H](C)C(=O)N[C@@H](CCC(=O)O)C(=O)N[C@@H](CC(=O)O)C(=O)N[C@@H](CCC(=O)O)C(=O)N[C@@H](CO)C(=O)N[C@@H](C)C(=O)N[C@@H](CCC(=O)O)C(=O)N[C@@H](C)C(=O)N[C@@H](Cc1ccccc1)C(=O)N1CCC[C@H]1C(=O)N[C@@H](CC(C)C)C(=O)N[C@@H](CCC(=O)O)C(=O)N[C@@H](Cc1ccccc1)C(=O)O)C(C)C)C(C)C)C(C)C` [ACTH (1–39), adrenocorticotropic hormone] (H-SYSMEHFRWGKPVGKKRRPVKVYPNGAEDESAEAFPLEF-OH; N-terminus and C-terminus assumed), the inhibition constant (Ki) at human MC4 (ref [40]) is 2170 ± 120 nM; at human MC1 (ref [40]), 3.95 ± 0.67 nM; on human MC3 (ref [40]), 135 ± 22 nM; on human MC5 (ref [40]), 4920 ± 610 nM. In addition, the “affinity for lamprey MCa compared to the human MC4 and MC5 receptors” value at lamprey MCa receptor (setting [1]) is given as “clearly higher affinities”. Also, the “affinity for lamprey MCa compared to the human MC1 and MC3 receptors” value at lamprey MCa receptor (setting [1]) is on record as “clearly lower affinities”.
Consider `CCCC[C@@H]1NC(=O)[C@@H](NC(C)=O)CSSC[C@@H](C(N)=O)NC(=O)CNC(=O)[C@H](Cc2c[nH]c3ccccc23)NC(=O)[C@H](CCCNC(=N)N)NC(=O)[C@@H](Cc2ccc3ccccc3c2)NC(=O)[C@H](Cc2c[nH]cn2)NC(=O)[C@H](CCCNC(=N)N)NC1=O` [HS024] (Ac-C[Nle]RH[d2Nal]RWGC-NH2; disulfide 1-9 (inferred); N-terminus and C-terminus assumed), for which the inhibition constant (Ki) on human MC4 (ref [42]) is 0.341 ± 0.089 nM; at lamprey MCa receptor, 72.5 ± 1.4 nM; on human MC1 (ref [41]), 18.6 ± 3.3 nM; at human MC3 (ref [42]), 15.1 ± 3 nM; at human MC5 (ref [41]) it was 3.29 ± 1.15 nM. Moreover, the “affinity for lamprey MCa compared to the human MC1, MC3, MC4 and MC5 receptors” value at lamprey MCa receptor (setting [1]) is reported as “clearly lower affinities”.
Consider `CSCC[C@H](NC(=O)[C@@H](NC(=O)[C@@H](N)Cc1ccc(O)cc1)C(C)C)C(=O)NCC(=O)N[C@@H](Cc1c[nH]cn1)C(=O)N[C@@H](Cc1ccccc1)C(=O)N[C@@H](CCCNC(=N)N)C(=O)N[C@@H](Cc1c[nH]c2ccccc12)C(=O)N[C@@H](CC(=O)O)C(=O)N[C@@H](CCCNC(=N)N)C(=O)N[C@@H](Cc1ccccc1)C(N)=O` [γ1-MSH], for which the inhibition constant (Ki) at human MC4 (ref [42]) is 51800 ± 12000 nM; at lamprey MCa receptor, 684 ± 7 nM; at human MC1 (ref [39]) it was 2.68 ± 0.35 nM; at human MC3 (ref [42]), 7.45 ± 2.55 nM; on human MC5 (ref [39]), 42600 ± 6600 nM. The “affinity for lamprey MCa compared to the human MC4 and MC5 receptors” value on lamprey MCa receptor (setting [1]) was “clearly higher affinities”. The “affinity for lamprey MCa compared to the human MC1 and MC3 receptors” value on lamprey MCa receptor (setting [1]) is “clearly lower affinities”.
Take “β-melanocyte stimulating hormone [β-MSH]”: the inhibition constant Ki on human MC4 (ref [42]) is 387 ± 208 nM; on human MC1 (ref [38]), 2.53 ± 0.93 nM; on human MC3 (ref [42]) it was 15.1 ± 3.4 nM; at human MC5 (ref [39]), 14400 ± 1670 nM. Further, the “affinity for lamprey MCa compared to the human MC4 and MC5 receptors” value on lamprey MCa receptor (setting [1]) is given as “clearly higher affinities”. At lamprey MCa receptor (setting [1]), the “affinity for lamprey MCa compared to the human MC1 and MC3 receptors” value is recorded as “clearly lower affinities”.
